Experimental data reported in patent US12440475B2, “Hodgkin lymphoma therapy” (priority 2016, dated 2025).

What was measured:
[1] = Histopathology of non-tumour findings (lung, spleen) in xenografted NSG mice; format: in vivo; parameters: key: 0: within physiological limits; 1: minimal; 2: mild; 3: moderate; 4: marked; 5: severe
Experimental: Organs were fixed in 4% PFA, trimmed and post-fixed in 70° ethanol. They were then briefly processed using a vacuum inclusion processor and paraffin blocks were prepared. Five micrometer-thick sections were cut from these blocks and the resulting sections were stained with hemotoxylin-eosine (H&E) for histopathological analysis. In addition, IHC was carried out on of the totality of liver and spleen specimens for confirmation of the spread of engrafted cells. The search for single cells or small groups of grafted Hodgkin lymphoma cells was performed using an anti-CD30 antibody (DAKO, France; 1:40, EDTA pH9 pre-treatment) and the Ventana Discovery XT IHC system. Apoptosis and tumour necrosis were analysed.
Microscopic findings were assigned a severity score based upon the following scale: “0”=within physiological limits, “1”=minimal, “2”=mild, “3”=moderate, “4”=marked, “5”=severe. This severity score was attributed according to the size and number of observed lesions.

[2] = tested on: Hodgkin lymphoma cell lines; experiment: Apoptosis by annexin V-FITC and Hoechst double staining, 7 cell lines; format: cell-based, human; conditions: 5 μM; 24 h and 48 h; all cells
Experimental: This assay was performed on 7 cell lines (HDLM2 was excluded due to the low number of available cells) at 24 h and 48 h following EDO-S101 treatment (5 μM, DMSO). Control cells were cultured in the same final concentration of DMSO. Only viable cells (using Hoechst staining) were focused on, and all necrotic cells were excluded. Apoptosis was determined using annexin V-FITC and Hoechst (33342) double staining according to the manufacturer's instructions (BD Biosciences). Cell-cycle fractions were determined by Hoechst nuclear staining. Briefly, cells were harvested, washed in PBS, incubated with annexin V-FITC and Hoechst solution for 30 minutes at room temperature. Data were collected using a FACSCalibur flow cytometer (BD Biosciences) and analyzed with FlowJo Version 7.5.5 obtainable from FlowJo, LLC. Results represent the mean value of 3 independent experiments.

Cn1c(CCCCCCC(=O)NO)nc2cc(N(CCCl)CCCl)ccc21 [EDO-S101]
Lung, alveolar histiocytosis (score per animal) ([1]; 1*60 mg/kg): 1
Lung, alveolar histiocytosis (score per animal) ([1]; 1*80 mg/kg): 1
Spleen, red pulp activation, diffuse (score per animal) ([1]; 2*60 mg/kg): 3
sensitivity for apoptosis [2]: high sensitivity
